Data: paper PMC8351955, “Targeting Mycobacterium tuberculosis response to environmental cues for the development of effective antitubercular drugs” (PLoS Biology, 2021)

Key:
[1] = system: CDC1551(rv2390c′::GFP) reporter Mtb strain, response to high [Cl−]; assay: microbe, parasite or virus in culture; type: cell-based, Mycobacterium tuberculosis; conditions: primary screen, 10 µM
[2] = system: Mtb growth in cholesterol media; design: method as in PubChem AID 1259343; conditions: ref PubChem AID 1259343; cited from earlier work
[3] = system: Mtb; design: method as in PMID 26574016, PMID 27227164; conditions: subset of mice failing to respond; cited from earlier work
[4] = system: Mtb; design: method as in PMID 26574016, PMID 27227164; conditions: mice do not form caseous necrotic lesions; cited from earlier work

Row | Structure (SMILES) | Dysregulation of Mtb Cl− response in original rv2390c′::GFP screen [1] | Call in screen for inhibition of Mtb growth in cholesterol media [2] | Response in C3HeB/FeJ mice [3] | Efficacy across animals in BALB/c mice [4]
1 | c1ccc2oc(N3CCN(Cc4ccc(C5CCCO5)s4)CC3)nc2c1 (stereo not drawn) [PubChem SID: 340463409, reference compound] | did not demonstrate dysregulation | having antitubercular activity in cholesterol media |  | 
2 | COc1nc2ccc(Br)cc2cc1[C@@H](c1ccccc1)[C@@](O)(CCN(C)C)c1cccc2ccccc12 [bedaquiline] |  |  | heterogeneous response | uniform efficacy across animals
3 | NC(=O)c1cnccn1 [pyrazinamide] |  |  | heterogeneous response | uniform efficacy across animals
